From PubChem BioAssay AID1963852 (Molecular Pharmacology Branch, DTP, NCI, 2024)
pIC50: −log10 of the molar value.

Test system: 282377-053-R-J1-PDC complex spheroid viability
Assay: Anticancer human tumor 282377-053-R-J1-PDC patient-derived colon adenocarcinoma cell line growth inhibition [POLQ]
Details: for pIC50: curve of first compound; for viability, T/C: stronger effect = lower value
Summary of the method: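 Patient-derived tumour cells were co-cultured with HUVEC and mesenchymal stem cells as multicellular spheroids at 37 °C. They were treated with POLQ inhibitors (novobiocin, ART-558, RP6685) alone or combined with other agents. Top concentrations were at or near clinical Cmax (otherwise 10 microM; SN-38 at 1 microM), decreasing in half-log steps.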

[1] = second compound 0.0316 µM, first compound 0.0316 µM
[2] = second compound 0.0316 µM, first compound 0.1 µM
[3] = second compound 0.0316 µM, first compound 0.316 µM
[4] = second compound 0.0316 µM, first compound 1 µM
[5] = second compound 0.0316 µM, first compound 3.16 µM
[6] = second compound 0.0316 µM, first compound 10 µM
[7] = second compound 0.1 µM, first compound 0.0316 µM
[8] = second compound 0.1 µM, first compound 0.1 µM
[9] = second compound 0.1 µM, first compound 0.316 µM
[10] = second compound 0.1 µM, first compound 1 µM
[11] = second compound 0.1 µM, first compound 3.16 µM
[12] = second compound 0.1 µM, first compound 10 µM
[13] = second compound 0.316 µM, first compound 0.0316 µM
[14] = second compound 0.316 µM, first compound 0.1 µM
[15] = second compound 0.316 µM, first compound 0.316 µM
[16] = second compound 0.316 µM, first compound 1 µM
[17] = second compound 0.316 µM, first compound 3.16 µM
[18] = second compound 0.316 µM, first compound 10 µM
[19] = second compound 1 µM, first compound 0.0316 µM
[20] = second compound 1 µM, first compound 0.1 µM
[21] = second compound 1 µM, first compound 0.316 µM
[22] = second compound 1 µM, first compound 1 µM
[23] = second compound 1 µM, first compound 3.16 µM
[24] = second compound 1 µM, first compound 10 µM
[25] = second compound 3.16 µM, first compound 0.0316 µM
[26] = second compound 3.16 µM, first compound 0.1 µM
[27] = second compound 3.16 µM, first compound 0.316 µM
[28] = second compound 3.16 µM, first compound 1 µM
[29] = second compound 3.16 µM, first compound 3.16 µM
[30] = second compound 3.16 µM, first compound 10 µM
[31] = second compound 10 µM, first compound 0.0316 µM
[32] = second compound 10 µM, first compound 0.1 µM
[33] = second compound 10 µM, first compound 0.316 µM
[34] = second compound 10 µM, first compound 1 µM
[35] = second compound 10 µM, first compound 3.16 µM
[36] = second compound 10 µM, first compound 10 µM
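Also: spheroids exposed to compounds for seven days.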
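For viability, T/C in this document: 100% = DMSO vehicle control viability.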

## COc1cc(C2c3cc4c(cc3C(OC3OC5COC(C)OC5C(O)C3O)C3COC(=O)C23)OCO4)cc(OC)c1O (centres undefined) + Cc1cccc(N(C)C(=O)C2C(O)CCN2c2nc(C)cc(C(F)(F)F)c2C#N)c1
Second compound 0.0316 µM
  pIC50: < 5.00
Second compound 0.1 µM
  pIC50: < 5.00
Second compound 0.316 µM
  pIC50: < 5.00
Second compound 1 µM
  pIC50: < 5.00
Second compound 3.16 µM
  pIC50: < 5.00
Second compound 10 µM
  pIC50: 5.12
[1]
  viability, T/C: 139%
[2]
  viability, T/C: 104%
[3]
  viability, T/C: 128%
[4]
  viability, T/C: 109%
[5]
  viability, T/C: 84.8%
[6]
  viability, T/C: 61.4%
[7]
  viability, T/C: 112%
[8]
  viability, T/C: 105%
[9]
  viability, T/C: 123%
[10]
  viability, T/C: 88.7%
[11]
  viability, T/C: 89.1%
[12]
  viability, T/C: 59.1%
[13]
  viability, T/C: 108%
[14]
  viability, T/C: 98.2%
[15]
  viability, T/C: 119%
[16]
  viability, T/C: 116%
[17]
  viability, T/C: 91%
[18]
  viability, T/C: 64.2%
[19]
  viability, T/C: 107%
[20]
  viability, T/C: 99%
[21]
  viability, T/C: 123%
[22]
  viability, T/C: 98.1%
[23]
  viability, T/C: 78.7%
[24]
  viability, T/C: 56.9%
[25]
  viability, T/C: 103%
[26]
  viability, T/C: 102%
[27]
  viability, T/C: 96.2%
[28]
  viability, T/C: 90.1%
[29]
  viability, T/C: 86.2%
[30]
  viability, T/C: 53.9%
[31]
  viability, T/C: 103%
[32]
  viability, T/C: 100%
[33]
  viability, T/C: 96.5%
[34]
  viability, T/C: 78.2%
[35]
  viability, T/C: 62.1%
[36]
  viability, T/C: 46%

## COc1cccc2c1C(=O)c1c(O)c3c(c(O)c1C2=O)CC(O)(C(=O)CO)CC3OC1CC(N)C(O)C(C)O1 (centres undefined) + Cc1cccc(N(C)C(=O)C2C(O)CCN2c2nc(C)cc(C(F)(F)F)c2C#N)c1
Second compound 0.0316 µM
  pIC50: 6.32
Second compound 0.1 µM
  pIC50: 6.25
Second compound 0.316 µM
  pIC50: 6.34
Second compound 1 µM
  pIC50: 6.43
Second compound 3.16 µM
  pIC50: 6.31
Second compound 10 µM
  pIC50: 6.46
[1]
  viability, T/C: 130%
[2]
  viability, T/C: 105%
[3]
  viability, T/C: 63.7%
[4]
  viability, T/C: 27.6%
[5]
  viability, T/C: 1.27%
[6]
  viability, T/C: 3.44%
[7]
  viability, T/C: 108%
[8]
  viability, T/C: 98.5%
[9]
  viability, T/C: 79.6%
[10]
  viability, T/C: 20.7%
[11]
  viability, T/C: 1.4%
[12]
  viability, T/C: 2.79%
[13]
  viability, T/C: 104%
[14]
  viability, T/C: 100%
[15]
  viability, T/C: 66.1%
[16]
  viability, T/C: 16.1%
[17]
  viability, T/C: 0.98%
[18]
  viability, T/C: 3.12%
[19]
  viability, T/C: 113%
[20]
  viability, T/C: 101%
[21]
  viability, T/C: 47%
[22]
  viability, T/C: 29.9%
[23]
  viability, T/C: 2.19%
[24]
  viability, T/C: 2.83%
[25]
  viability, T/C: 115%
[26]
  viability, T/C: 91.7%
[27]
  viability, T/C: 73.3%
[28]
  viability, T/C: 15.2%
[29]
  viability, T/C: 1%
[30]
  viability, T/C: 2.98%
[31]
  viability, T/C: 95%
[32]
  viability, T/C: 89.8%
[33]
  viability, T/C: 54%
[34]
  viability, T/C: 9.01%
[35]
  viability, T/C: 0.71%
[36]
  viability, T/C: 2.73%
